Results reported in patent publication US10251889B2, “Substituted pyrazolo[1,5-a]pyrimidine compounds as Trk kinase inhibitors” (Array BioPharma, Inc., priority 2009, dated 2019).

Molecular target: Jak2 (human Jak2 kinase domain, amino acids 808-1132) (Homo sapiens (Human), UniProt O60674)
Test: Jak2 inhibition assay (Omnia kinase assay)
Type: biochemical
Conditions: read-out: Jak2 Enzyme (% inhibition at 1000 nM), Table 1; 1000 nM test compound

Sequence of Jak2 (human Jak2 kinase domain, amino acids 808-1132) (O60674 808-1132): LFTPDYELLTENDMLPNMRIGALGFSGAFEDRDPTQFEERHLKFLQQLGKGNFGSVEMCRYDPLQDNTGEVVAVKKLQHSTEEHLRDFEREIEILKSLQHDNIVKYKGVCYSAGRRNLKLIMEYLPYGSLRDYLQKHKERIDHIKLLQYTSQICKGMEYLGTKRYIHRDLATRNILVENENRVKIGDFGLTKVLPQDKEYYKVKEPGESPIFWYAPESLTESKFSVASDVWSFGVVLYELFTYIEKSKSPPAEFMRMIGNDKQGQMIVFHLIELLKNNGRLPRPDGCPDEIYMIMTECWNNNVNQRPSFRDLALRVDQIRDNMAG

Row | inhibition at 1 µM | SMILES
1 | 0.3% | Cc1ncc(F)cc1[C@H]1CCCN1c1ccn2ncc(C(=O)N3CC(O)C3)c2n1 [Example 192, (R)-(5-(2-(5-fluoro-2-methylpyridin-3-yl)pyrrolidin-1-yl)pyrazolo[1,5-a]pyrimidin-3-yl)(3-hydroxyazetidin-1-yl)methanone]
2 | 8.4% | Cc1ncc(F)cc1[C@H]1CCCN1c1ccn2ncc(C(=O)NC3(CO)CC3)c2n1 [Example 193, (R)-5-(2-(5-fluoro-2-methylpyridin-3-yl)pyrrolidin-1-yl)-N-(1-(hydroxymethyl)cyclopropyl)-pyrazolo[1,5-a]pyrimidine-3-carboxamide]
3 | 10.6% | Cc1ncc(F)cc1[C@H]1CCCN1c1ccn2ncc(C(=O)N[C@H]3CC[C@H](O)C3)c2n1 [Example 196, 5-((R)-2-(5-fluoro-2-methylpyridin-3-yl)pyrrolidin-1-yl)-N-((1S,3S)-3-hydroxycyclopentyl)pyrazolo[1,5-a]pyrimidine-3-carboxamide]
4 | 3.6% | Cc1ncc(F)cc1[C@H]1CCCN1c1ccn2ncc(C(=O)N[C@@H]3CCC[C@H]3O)c2n1 [Example 197, 5-((R)-2-(5-fluoro-2-methylpyridin-3-yl)pyrrolidin-1-yl)-N-((1R,2R)-2-hydroxycyclopentyl)pyrazolo[1,5-a]pyrimidine-3-carboxamide]
5 | 38.8% | CCc1ncc(F)cc1[C@H]1CCCN1c1ccn2ncc(C(=O)N[C@H]3CC[C@H](O)CC3)c2n1 [Example 199, 5-((R)-2-(2-ethyl-5-fluoropyridin-3-yl)pyrrolidin-1-yl)-N-((trans)-4-hydroxycyclohexyl)pyrazolo[1,5-a]pyrimidine-3-carboxamide]
6 | 11.5% | CC(C)(C)NC(=O)c1cnn2ccc(N3CCC[C@@H]3c3cc(F)c[nH]c3=O)nc12 [Example 202, (R)—N-tert-butyl-5-(2-(5-fluoro-2-oxo-1,2-dihydropyridin-3-yl)pyrrolidin-1-yl)pyrazolo[1,5-a]pyrimidine-3-carboxamide]
7 | 37% | CC1(C)OCC(COc2ccc(F)cc2[C@H]2CCCN2c2ccn3ncc(C(=O)NC4CC4)c3n2)O1 (stereo partly drawn) [Example 204, N-cyclopropyl-5-((2R)-2-(2-((2,2-dimethyl-1,3-dioxolan-4-yl)methoxy)-5-fluorophenyl)pyrrolidin-1-yl)pyrazolo[1,5-a]pyrimidine-3-carboxamide]
8 | 7.2% | CC1(C)OCC(COc2ccc(F)cc2[C@H]2CCCN2c2ccn3ncc(C(N)=O)c3n2)O1 (stereo partly drawn) [Example 205, 5-((2R)-2-(2-((2,2-dimethyl-1,3-dioxolan-4-yl)methoxy)-5-fluorophenyl)pyrrolidin-1-yl)pyrazolo[1,5-a]pyrimidine-3-carboxamide]
9 | 12.6% | CC1(C)OCC(COc2cc(F)cc([C@H]3CCCN3c3ccn4ncc(C(=O)NC5CC5)c4n3)c2)O1 (stereo partly drawn) [Example 206, N-cyclopropyl-5-((2R)-2-(3-((2,2-dimethyl-1,3-dioxolan-4-yl)methoxy)-5-fluorophenyl)pyrrolidin-1-yl)pyrazolo[1,5-a]pyrimidine-3-carboxamide]
10 | 21.2% | O=C(NC1CC1)c1cnn2ccc(N3CCC[C@@H]3c3cc(F)cc(OCC(O)CO)c3)nc12 (stereo partly drawn) [Example 208, N-cyclopropyl-5-((2R)-2-(3-(2,3-dihydroxypropoxy)-5-fluorophenyl)pyrrolidin-1-yl)pyrazolo[1,5-a]pyrimidine-3-carboxamide]
11 | 5.4% | NC(=O)c1cnn2ccc(N3CCC[C@@H]3c3cc(F)cc(OCC(O)CO)c3)nc12 (stereo partly drawn) [Example 209, 5-((2R)-2-(3-(2,3-dihydroxypropoxy)-5-fluorophenyl)pyrrolidin-1-yl)pyrazolo[1,5-a]pyrimidine-3-carboxamide]
12 | 32.3% | O=C(NC1CC1)c1cnn2ccc(N3CCC[C@@H]3c3cc(F)ccc3OCC(O)CO)nc12 (stereo partly drawn) [Example 210, N-cyclopropyl-5-((2R)-2-(2-(2,3-dihydroxypropoxy)-5-fluorophenyl)pyrrolidin-1-yl)pyrazolo[1,5-a]pyrimidine-3-carboxamide]
13 | 14.2% | C[C@@H](NC(=O)c1cnn2ccc(N3[C@H](CO)CC[C@@H]3c3cncc(F)c3)nc12)C(F)(F)F [Example 212, 5-((2R,5S)-2-(5-fluoropyridin-3-yl)-5-(hydroxymethyl)pyrrolidin-1-yl)-N—((R)-1,1,1-trifluoropropan-2-yl)pyrazolo[1,5-a]pyrimidine-3-carboxamide]
14 | 21.9% | C[C@H](NC(=O)c1cnn2ccc(N3[C@H](CO)CC[C@@H]3c3cncc(F)c3)nc12)C(F)(F)F [Example 213, 5-((2R,5S)-2-(5-fluoropyridin-3-yl)-5-(hydroxymethyl)pyrrolidin-1-yl)-N—((S)-1,1,1-trifluoropropan-2-yl)pyrazolo[1,5-a]pyrimidine-3-carboxamide]
15 | 29.7% | CC1(NC(=O)c2cnn3ccc(N4[C@H](CO)CC[C@@H]4c4cncc(F)c4)nc23)CC1 [Example 214, 5-((2R,5S)-2-(5-fluoropyridin-3-yl)-5-(hydroxymethyl)pyrrolidin-1-yl)-N-(1-methylcyclopropyl)pyrazolo[1,5-a]pyrimidine-3-carboxamide]
16 | 28.3% | CC(C)NC(=O)c1cnn2ccc(N3[C@H](CO)CC[C@@H]3c3cncc(F)c3)nc12 [Example 215, 5-((2R,5S)-2-(5-fluoropyridin-3-yl)-5-(hydroxymethyl)pyrrolidin-1-yl)-N-isopropylpyrazolo[1,5-a]pyrimidine-3-carboxamide]
17 | 54% | C[C@H](NC(=O)c1cnn2ccc(N3C[C@@H](O)C[C@@H]3c3cccc(F)c3)nc12)C(F)(F)F [Example 216, 5-((2R,4S)-2-(3-fluorophenyl)-4-hydroxypyrrolidin-1-yl)-N—((S)-1,1,1-trifluoropropan-2-yl)pyrazolo[1,5-a]pyrimidine-3-carboxamide]
18 | 61.7% | CC(C)NC(=O)c1cnn2ccc(N3C[C@@H](O)C[C@@H]3c3cccc(F)c3)nc12 [Example 217, 5-((2R,4S)-2-(3-fluorophenyl)-4-hydroxypyrrolidin-1-yl)-N-isopropylpyrazolo[1,5-a]pyrimidine-3-carboxamide]
19 | 24.6% | CNC(=O)c1cnn2ccc(N3C[C@@H](O)C[C@@H]3c3cccc(F)c3)nc12 [Example 218, 5-((2R,4S)-2-(3-fluorophenyl)-4-hydroxypyrrolidin-1-yl)-N-methylpyrazolo[1,5-a]pyrimidine-3-carboxamide]
20 | 25.5% | CC(C)NC(=O)c1cnn2ccc(N3[C@@H](c4cncc(F)c4)CC[C@@]3(C)CO)nc12 [Example 219, 5-((2 S, 5R)-5-(5-fluoropyridin-3-yl)-2-(hydroxymethyl)-2-methylpyrrolidin-1-yl)-N-isopropylpyrazolo[1,5-a]pyrimidine-3-carboxamide]
21 | 15.2% | C[C@H](NC(=O)c1cnn2ccc(N3[C@@H](c4cncc(F)c4)CC[C@@]3(C)CO)nc12)C(F)(F)F [Example 220, 5-((2S,5R)-5-(5-fluoropyridin-3-yl)-2-(hydroxymethyl)-2-methylpyrrolidin-1-yl)-N—((S)-1,1,1-trifluoropropan-2-yl)pyrazolo[1,5-a]pyrimidine-3-carboxamide]
22 | -1.2% | Nc1ncc(F)cc1[C@H]1CCCN1c1ccn2ncc(C(=O)N3CCC3)c2n1 [Example 221, (R)-(5-(2-(2-amino-5-fluoropyridin-3-yl)pyrrolidin-1-yl)pyrazolo[1,5-a]pyrimidin-3-yl)(azetidin-1-yl)methanone]
23 | 2.7% | O=C(NOCCO)c1cnn2ccc(N3CCC[C@@H]3c3cc(F)cnc3Cl)nc12 [Example 225, (R)-5-(2-(2-chloro-5-fluoropyridin-3-yl)pyrrolidin-1-yl)-N-(2-hydroxyethoxy)pyrazolo[1,5-a]pyrimidine-3-carboxamide]
24 | 100% | Cn1cc(F)cc([C@H]2CCCN2c2ccn3ncc(C(=O)NC(C)(C)C)c3n2)c1=O [Example 226, (R)—N-tert-butyl-5-(2-(5-fluoro-1-methyl-2-oxo-1,2-dihydropyridin-3-yl)pyrrolidin-1-yl)pyrazolo[1,5-a]pyrimidine-3-carboxamide]
25 | 62.8% | CC(C)NC(=O)c1cnn2ccc(N3CCC[C@@H]3c3cc(F)cn(C)c3=O)nc12 [Example 227, (R)-5-(2-(5-fluoro-1-methyl-2-oxo-1,2-dihydropyridin-3-yl)pyrrolidin-1-yl)-N-isopropylpyrazolo[1,5-a]pyrimidine-3-carboxamide]
26 | 53.3% | Cn1cc(F)cc([C@H]2CCCN2c2ccn3ncc(C(=O)NC4CCC4)c3n2)c1=O [Example 230, (R)-N-cyclobutyl-5-(2-(5-fluoro-1-methyl-2-oxo-1,2-dihydropyridin-3-yl)pyrrolidin-1-yl)pyrazolo[1,5-a]pyrimidine-3-carboxamide]
27 | 26.6% | Cn1cc(F)cc([C@H]2CCCN2c2ccn3ncc(C(=O)Nc4cccnc4)c3n2)c1=O [Example 231, (R)-5-(2-(5-fluoro-1-methyl-2-oxo-1,2-dihydropyridin-3-yl)pyrrolidin-1-yl)-N-(pyridin-3-yl)pyrazolo[1,5-a]pyrimidine-3-carboxamide]
28 | 31.9% | Cn1cc(F)cc([C@H]2CCCN2c2ccn3ncc(C(=O)NCC4CC4)c3n2)c1=O [Example 232, (R)-N-(cyclopropylmethyl)-5-(2-(5-fluoro-1-methyl-oxo-1,2-dihydropyridin-3-yl)pyrrolidin-1-yl)pyrazolo[1,5-a]pyrimidine-3-carboxamide]
29 | 6.7% | Cn1cc(F)cc([C@H]2CCCN2c2ccn3ncc(C(=O)N[C@H](CO)C(C)(C)C)c3n2)c1=O [Example 233, 5-((R)-2-(5-fluoro-1-methyl-2-oxo-1,2-dihydropyridin-3-yl)pyrrolidin-1-yl)-N-((S)-1-hydroxy-3,3-dimethylbutan-2-yl)pyrazolo[1,5-a]pyrimidine-3-carboxamide]

Row | SMILES | inhibition at 1 µM
30 | Cc1ncc(F)cc1[C@H]1CCCN1c1ccn2ncc(C(=O)N[C@H]3CN4CCC3CC4)c2n1 [Example 198, 5-((R)-2-(5-fluoro-2-methylpyridin-3-yl)pyrrolidin-1-yl)-N-((R)-quinuclidin-3-yl)pyrazolo[1,5-a]pyrimidine-3-carboxamide] | 1.6%
